In PMC9519446, “Discovery of an Orally Active Benzoxaborole Prodrug Effective in the Treatment of Chagas Disease in Non-human Primates” (Nature microbiology, 2022):
“And” between values parts separate entries of the source, which are not always exact repeats. Identical values can stand only once. Like-named read-outs stand apart in the source and are kept apart here.

Assays:
[1] = tested on: T. cruzi extracellular amastigotes; assay: Extracellular amastigote assay (ATPlite luminescence, 48 hours); format: cell-based; conditions: Trypanosoma cruzi, extracellular amastigotes
Protocol: (§1) The in vitro anti-T. cruzi amastiogote activity assay was performed and optimized based on the protocol described previously. The change in tdTomato fluorescence intensity was determined as a measurement of growth over 72 hours of culture. For assaying drug effects on extracellular amastigotes, trypomastigotes were collected from infected Vero cell cultures and converted in acidic media as previously described. Amastigotes (50,000/well) were incubated with 2-fold serial dilutions of compounds for 48 hours. The ATP production was used as an indication of growth in this case, and was measured by ATPlite Luminescence ATP Detection Assay System (PerkinElmer). Both fluorescence and luminescence were read using a BioTek Synergy Hybrid Multi-Mode reader equipped with the software Gene5 v 2.0 (BioTek). The dose-response curve was generated by […] analysis with GraphPad Prism v9.4.0 (GraphPad Software).

[2] = tested on: T. cruzi intracellular amastigotes; assay: In vitro anti-T. cruzi intracellular amastigote growth inhibition assay (tdTomato fluorescence over 72 hours, Vero cells); format: cell-based, Trypanosoma cruzi; conditions: for activity at 0.00407 µM: [uM] -2.39 [sic]
Protocol: as §1

[3] = tested on: CPSF3-OE T. cruzi intracellular amastigotes; assay: microbe, parasite or virus in culture; format: cell-based; conditions: Trypanosoma cruzi; for activity at 0.1 µM / activity at 0.4 µM / activity at 0.7 µM / activity at 1 µM / activity at 1.3 µM / activity at 1.6 µM: 72 h, read-out: % of maximum, CPSF3-OE; for IC50: read-out: CPSF3-OE IC50, intracellular amastigotes
Protocol: as §1
The CPSF3 gene was amplified using primers ‘[…]’ and ‘[…]’, and integrated into the pTrex vector [47] by NEBuilder HiFi DNA assembly (New England Biolabs). The construct of pTrex-CPSF was then transfected into Brazil tdTomato epimastigotes and selected by 60ug/ml blasticidin.
To confirm the CPSF overexpression in the selected transfectants, RNA was extracted as previously described and converted to cDNA using SuperScript Reverse Transcriptase (Invitrogen). Quantitative PCR reactions were performed in triplicate on the C1000 Touch Bio-Rad CFX96 real-time PCR detection system for CPSF using primer sets CPSF-1 (5'-[…]-3' and 5'-[…]-3') and CPSF-2 (5'-[…]-3' and 5'-[…]-3') in both control and CPSF over-expressing parasites, and the expression level was normalized to tubulin which was amplified using primers: ‘[…]’ and ‘[…]’.

[4] = tested on: TcCBP KO T. cruzi intracellular amastigotes; assay: microbe, parasite or virus in culture; format: cell-based; conditions: Trypanosoma cruzi, read-out: TcCBP KO IC50
Protocol: as §1
The CBPs knockout was produced using ribonucleoprotein (RNP) complexes as previously described. Briefly, Brazil tdTomato strain epimastigotes were electroporated with RNP complexes containing SaCas9 and an sgRNA targeting CBP gene TcBrA4_0048170, plus a repair template containing stop codons in all three reading frames and the M13 sequence for use as a PCR anchor. The sgRNA targeted the ‘[…]” sequence. After 2 days of recovery, single-cell clones were derived by depositing epimastigotes into a 96-well plate at a density of 0.5 cell/well by using a MoFlo Astrios EQ cell sorter (Beckman Coulter). DNA isolation was performed for clones, and primer pair of 5’-[…]-3’ and 5’- […] -3’ was used for amplifying the wild type allele, while primer pair of M13-F: 5’- […] -3’ and 5’- […] -3’ was used for amplifying the mutant allele.

T. cruzi = conditions: T. cruzi-infected NHPs; cited from earlier work
[5] = tested on: tdTomato expressing T. cruzi (CL strain); assay: Rapid in vivo assay: footpad infection, single oral dose, fluorescence imaging 2 and 4 dpi (proliferation index);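 also: single oral dose of 50 mg/kg given at 2 dpi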; design: species or system C57BL/6 mice; conditions: Fig. 3a; individual footpads
Protocol: Fluorescent intensity of the feet was measured at 2 dpi before compound administration and at 4 dpi in the Maestro in vivo imaging system equipped with the software Maestro 2.1.0 (CRi) as previously described. The proliferation index was estimated as PI=[(T4d – T2d)/(mUnt4d-mUnt2d)]*100; where T4d and T2d are the fluorescence intensity of the feet of the treated animals at days 4 and 2 post-infection respectively; mUnt4d and mUnt2d are the average fluorescence intensity of the feet of the untreated animals at 4 and 2 dpi respectively.

T. cruzi Brazil strain = assay: Mouse cure assays (daily oral treatment, immunosuppression, qPCR of skeletal muscle, blood microscopy, hemoculture); format: in vivo, C57BL/6 mice; conditions: individual mice
Protocol: Male or female C57BL/6 mice were intraperitoneally infected with 10^4 trypomastigotes of the Brazil strain. Mouse infection was confirmed at 25-30 dpi by detection of CD8^+ T cells specific against the T. cruzi TSKb20 peptide in blood. Compounds resuspended in 1% carboxymethyl cellulose and 0.1% Tween 80, were administered daily by gavage at the specified concentrations. In order to optimally detect persistent infection, immune responses in the mice were suppressed by intraperitoneal injection of four doses of cyclophosphamide every 2-3 days (200 mg/kg/day), beginning one week after the end of therapeutic treatment. At the end of the immunosuppression regimen, peripheral blood was checked under light microscope for parasites and cultured in LDNT media. Mouse skeletal muscle samples were obtained at the end of the immunosuppression and processed for T. cruzi-DNA detection by qPCR as previously described.

[6] = Trypanosoma cruzi, Vero, in vitro, Fig. 1a, Extended Data Fig. 1a, read-out: T. cruzi IC50
[7] = 48 hours, Fig. 5f, Extended Data Fig. 4d, read-out: IC50 (nM) T. cruzi extra-
[8] = Trypanosoma cruzi, Vero, 72 h, read-out: % of maximum, WT, single replicates
[9] = Trypanosoma cruzi, Vero, read-out: WT IC50, WT intracellular amastigotes, control of CPSF3-OE comparison
[10] = Trypanosoma cruzi, Vero, read-out: WT IC50, WT intracellular amastigotes, control of TcCBP KO comparison
[11] = Trypanosoma cruzi, Vero, intracellular T. cruzi, Fig. 5f, read-out: IC50 (nM) T. cruzi intra-

Structure (SMILES): Cc1c(C(=O)N[C@H](C(=O)O)C(C)C)ccc2c1B(O)OC2 [AN14667]
- IC50 ([1]; Fig. 2a, read-out: Extracellular IC50): 3900 nM
- activity at 0.7 µM ([2]; Trypanosoma cruzi, Vero, 72 h, read-out: % of maximum, WT, [uM] 0.70, single replicates): 43%
- activity at 1 µM ([2]; Trypanosoma cruzi, Vero, 72 h, read-out: % of maximum, WT, [uM] 1.00, single replicates): 0%
- activity at 0.7 µM ([2]; Trypanosoma cruzi, Vero, 72 h, read-out: % of maximum, WT, concentration 0.70 [uM] as printed): 43%
- activity at 0.1 µM ([2]; Trypanosoma cruzi, Vero, 72 h, read-out: % of maximum, intracellular, [uM] 0.10): 86%
- activity at 0.4 µM ([2]; Trypanosoma cruzi, Vero, 72 h, read-out: % of maximum, intracellular, [uM] 0.40): 66%
- activity at 0.7 µM ([2]; Trypanosoma cruzi, Vero, 72 h, read-out: % of maximum, intracellular, [uM] 0.70): 43%
- activity at 1.6 µM ([2]; Trypanosoma cruzi, Vero, 72 h, read-out: % of maximum, intracellular, [uM] 1.60): 0%
- IC50 [2, 6]: 5720 nM
- IC50 ([2]; Trypanosoma cruzi, Vero, intracellular amastigotes, Fig. 2a, read-out: Intracellular IC50): 3600 nM
- reduced activity relative to ester prodrug ([2]; both intra- and extracellular amastigotes): ~ 1000 fold
- % of maximum ([2]; intracellular, [uM] 1.60): 0%
- activity at 0.1 µM ([3]; [uM] 0.10, single replicates): 97%
- activity at 0.4 µM ([3]; [uM] 0.40 as printed, single replicates): 102%
- activity at 0.7 µM ([3]; [uM] 0.70, single replicates): 108%
- activity at 1 µM ([3]; [uM] 1.00, single replicates): 89%
- activity at 1.3 µM ([3]; [uM] 1.30 [sic], single replicates): 59%
- activity at 1.6 µM ([3]; [uM] 1.60 as printed, single replicates): 27%
- activity at 0.1 µM ([3]; concentration 0.10 [uM] as printed): 97%
- activity at 0.4 µM ([3]; concentration 0.40 [uM] as printed): 102%
- activity at 0.7 µM ([3]; concentration 0.70 [uM] as printed): 108%
- activity at 1 µM ([3]; concentration 1.00 [uM] as printed): 89%
- activity at 1.3 µM ([3]; concentration 1.30 [uM] as printed): 59%
- activity at 1.6 µM ([3]; concentration 1.60 [uM] as printed): 27%

Structure (SMILES): Cc1c(C(=O)N[C@H](C(=O)OCc2ccccc2)C(C)C)ccc2c1B(O)OC2 [AN11735]
- IC50 [1, 7]: 1.2 nM

Structure (SMILES): Cc1c(C(=O)NC(C(=O)OCc2ccc(F)cc2)C(C)C)ccc2c1B(O)OC2 (stereo not shown) [AN11736, 4-fluorobenzyll-valinate amide benzoxaborole]
- IC50 [4]: 618 nM
- activity at 0.00407 µM [2, 8]: 46%
- IC50 [2, 9]: 3.2 nM
- IC50 [2, 10]: 3.2 nM
- % of maximum ([2]; WT, [uM] -1.43 as printed, single replicates): -1% and 1%
- IC50 [3]: 6.5 nM

Structure (SMILES): CCc1c(C(=O)N[C@H](C(=O)OCc2ccccc2)C(C)C)ccc2c1B(O)OC2 [AN14557]
- IC50 [1, 7]: 1.5 nM
- IC50 [2, 11]: 37 nM

Structure (SMILES): Cc1c(C(=O)N[C@H](C(=O)OC2CCOCC2)C(C)C)ccc2c1B(O)OC2 [AN15572]
- IC50 [2, 6]: 11 nM

Structure (SMILES): CC(C)C(NC(=O)c1ccc2c(c1C1CC1)B(O)OC2)C(=O)OCc1ccccc1 (stereo not shown) [AN14577]
- IC50 [1, 7]: 240 nM
- IC50 [2, 11]: > 1250 nM

Structure (SMILES): CC(C)[C@H](NC(=O)c1ccc2c(c1F)B(O)OC2)C(=O)OCc1ccccc1 [AN11622]
- IC50 [1, 7]: 37 nM
- IC50 [2, 11]: > 1250 nM

Structure (SMILES): CC(C)c1c(C(=O)NC(C(=O)OCc2ccccc2)C(C)C)ccc2c1B(O)OC2 (stereo not shown) [AN14630]
- IC50 [1, 7]: 13 nM
- IC50 [2, 11]: > 1250 nM

Structure (SMILES): CC[C@@H]([C@H](C)O)n1ncn(-c2ccc(N3CCN(c4ccc(OC[C@@H]5CO[C@@](Cn6cncn6)(c6ccc(F)cc6F)C5)cc4)CC3)cc2)c1=O [posaconazole]
- failures in treatment trial (T. cruzi): 100%

Structure (SMILES): O=C(Cn1ccnc1[N+](=O)[O-])NCc1ccccc1 [BNZ]
- Parasite proliferation index of footpads infected with tdTomato-expressing T. cruzi [5]: 23.6 and 6.5 and 46.7 and 1.3 and 29.6 and 25.1 and 51.0 and 55.7 and -21.7 and -21.2

Structure (SMILES): Cc1c(C(=O)NC(C(=O)OCC2CCOC2)C(C)C)ccc2c1B(O)OC2 (stereo not shown) [AN16109]
- IC50 [4]: 2500 nM
- Parasite equivalent/ 50 ng of DNA of skeletal muscle (T. cruzi Brazil strain; Fig. 3c, mice treated for 20 days): 0.11 Parasite equivalent/ 50 ng of DNA and 0.27 Parasite equivalent/ 50 ng of DNA and 0.0541 Parasite equivalent/ 50 ng of DNA and 0.0079 Parasite equivalent/ 50 ng of DNA and 0.12 Parasite equivalent/ 50 ng of DNA and 0.0367 Parasite equivalent/ 50 ng of DNA
- Parasite equivalent/ 50 ng of DNA of skeletal muscle (T. cruzi Brazil strain; Fig. 3e, mice treated for 40 days with 2.5 mg/kg, 2.5 mg/kg): 0.223 Parasite equivalent/ 50 ng of DNA and 0.2345 Parasite equivalent/ 50 ng of DNA and 0.468 Parasite equivalent/ 50 ng of DNA and 0.01907 Parasite equivalent/ 50 ng of DNA and 0.1637 Parasite equivalent/ 50 ng of DNA and 1.455 Parasite equivalent/ 50 ng of DNA and 0.04407 Parasite equivalent/ 50 ng of DNA and 0.06524 Parasite equivalent/ 50 ng of DNA
- Parasite proliferation index of footpads infected with tdTomato-expressing T. cruzi [5]: 52.8 and 35.3 and 33.3 and 35.0 and 26.3 and 26.8 and -3.0 and 4.6 and 35.6 and 29.4
- activity at 0.00407 µM [2, 8]: 75%
- IC50 [2, 9]: 6.6 nM
- IC50 [2, 10]: 6.6 nM
- IC50 [2, 6]: 5 nM
- % of maximum ([2]; WT, [uM] 0.00 as printed, single replicates): 0%
- % of maximum ([2]; WT, [uM] -1.91 as printed, single replicates): 13%
- IC50 [3]: 22.7 nM

Structure (SMILES): CC(C)[C@H](NC(=O)c1ccc2c(c1)B(O)OC2)C(=O)OCc1ccccc1 [AN10443]
- IC50 [1, 7]: 13 nM
- IC50 [2, 6]: 670 nM
